Key:
actin [1] = test: TIRF assay, nucleation of actin filaments (filament number); format: biochemical, rabbit
Method: To assess how filaments generated in the presence or absence of Arp2/3 differ, a TIRF-based assay was used. Videos of representative assays are shown in Supplementary Videos 1, 2, 3 and combined in Supplementary Video 4.
(§1) Actin filament growth rate assays. Total Internal Reflection microscopy (TIRFm) was performed using a method modified from[58] using purified rabbit muscle actin and Alexa488 actin (Cytoskeleton, Inc) at a 4:1 ratio. Glass coverslips (Deckgläser) were cleaned using a modification of the method described. Briefly, coverslips were rinsed with gentle agitation in acetone (30 min), then water (5 min) then cleaned in Piranha solution (13 ml concentrated sulphuric acid and 6 ml hydrogen peroxide) for 90 min before rinsing with distilled water and ethanol, drying and coating with 1 mg/ml mPEG silane MW 2000 (Layssan Bio). TIRF reaction buffers 10× KMEI, GOC mixture, and methyl cellulose (400 cP, Sigma) were prepared in advance. 10× KMEI buffer (500 mM KCl, 100 mM Imidazole (pH 7.0), 10 mM MgCl2, 10 mM EGTA (pH 7.0)) was filtered through a sterile syringe-filter device (0.22 μm, Thermo Fisher Scientific) and stored at room temperature. GOC mixture was prepared by dissolving 20 mg of Catalase (Calbiochem) and 100 mg of Glucose-oxidase in 10 ml cold water. […]

actin [2] = test: TIRF assay, actin filament growth (elongation) rate; format: biochemical, rabbit; details: 0.5 µM actin, vs actin only
Method: as §1, with “water. Undissolved particles were cleared by ultracentrifugation and 50 μl aliquots from the upper 90% of the supernatant were stored at −20 °C. 50 ml of 2% methyl cellulose was prepared by dissolving 1 g methylcellulose in 25 ml of Milli-Q water preheated to 65 °C, before adding 25 ml of room temperature water and rotating overnight at 4 °C.” for “water.”

[3] = tested on: Las17-GFP and Arc15-mCherry; test: Dual-reporter lifetimes, Las17-GFP and Arc15-mCherry co-localisation; format: cell-based, Saccharomyces cerevisiae; details: Las17-GFP / Arc15-mCherry dual-label strain
Method: A size bar for each set of kymographs is shown on the upper right of each set. For (A) and (C) size bar is 100 nm and for B is 200 nm. Error bars are standard deviation. […] The site of interest is labelled in the first two time panels with a white arrow. Exposure 0.5 sec with 1 second time lapse. 120 s recorded. […] Error bars are standard deviation.
Individual spots were analysed for lifetimes and behaviours.
Yeast strains used in this study are listed in Supplementary table 2 and plasmids used in Supplementary table 1. Unless stated otherwise, cells were grown with rotary shaking at 30 °C in liquid YPD medium (1% yeast extract, 2% Bacto-peptone, 2% glucose supplemented with 40 μg/ml adenine) or in synthetic medium (0.67% yeast nitrogen base, 2% glucose) with appropriate supplements. […] DNA cassettes carrying mutations for integration were transformed into KAY1801. Mutant colonies were counter-selected on minimal medium, containing 0.005% uracil and 0.1% 5’-Fluoroorotic Acid (5-FOA; Melford laboratories). Allele exchange, in growing Ura3^-, 5-FOA resistant colonies, was confirmed by PCR and sequencing.
For live-cell imaging, cells expressing tagged proteins were visualised after growing to early log phase. Analysis was carried out at room temperature (22 °C). […] Images were taken simultaneously on separate scientific complementary metal oxide semiconductor (sCMOS) cameras (30 msec exposure). Seven 250 nm sections were acquired every 0.5 sec (241 time points). The stacks were then deconvolved and processed, using SoftWorx. Protein localisation and lifetime was analysed from those projections. Fiji software was used to assemble movies and kymographs, to track and record behaviour of individual spots. Graphs show mean ± SD. […] Where appropriate data was tested for normal distribution using Graphpad Prism software, and then subjected to the appropriate test as described in the methods for each experiment type.

[4] = tested on: Sla1 inhibition of Las17-mediated actin polymerisation; test: Pyrene actin assay, alleviation of Sla1 inhibition of Las17-mediated actin polymerisation; format: biochemical; details: Arp2/3-independent, activated Sec4, Las17 300 nM, Sla1 SH3 1+2+3 300 nM, 3 µM actin
Method: Fluorometry assays were performed as described previously. 370 μl assays used 3 μM actin as indicated unless otherwise specified. Pyrene-actin was added to 5%, mixed thoroughly, and added to the fluorometry cuvette. Polymerization salts, 10× KME (500 mM KCl, 10 mM MgCl2, 10 mM EGTA, 100 mM Tris-HCl [pH 8.0]) were mixed with fragments or G buffer to give final concentration of 0.5× KME before reading fluorescence. […] Experiments were carried out three separate times with different protein preparations and a representative graph shown.
Liposome binding assays were carried out as described previously. To prepare liposomes 11 μl of a 25 mg/ml solution of Folch fraction-1 was dried under a nitrogen stream. They were washed in chloroform, dried under nitrogen, and further washed with diethyl ether to remove all traces of chloroform before being dried again. […] The pellets were resuspended in 50 µl buffer B and samples were analysed by SDS-PAGE. The proportion of protein in each sample was determined by densitometry of the Coomassie stained gels using a BioRad GelDoc. […] To normalise the data the amount of protein in the supernatant and pellet of each sample was added together to give a value for 100%, and then the % in either the supernatant or pellet alone was calculated. […]

[5] = tested on: Sla1 inhibition of Las17-mediated actin polymerisation; details: with Arp2/3; ref [24]; cited from earlier work
Source text: As shown in vitro in Fig. 7D, the addition of activated Sec4 to pyrene assays does indeed rel ...

Las17 = details: cell free extracts; ref [24]; cited from earlier work
Source text: The model predicts an extensive interaction surface highlighted in red (Fig. 7E).

Substance	increase in nucleation rate compared to actin alone (actin [1])	number of filaments (actin [1]; 10 minute time point, 500 nM actin, 50 nM Las17, per unit area, errors are standard deviation, actin alone 16.3 ± 2.3)	effect on elongation rate of actin filaments (actin [2])	duration of co-localization of Las17-GFP and Arc15-mCherry [3]	time of Arc15-mCherry alone after Las17 disassembly [3]	time of Las17 at the site before Arc15 is recruited [3]	relief of Sla1 inhibition of Las17-mediated actin polymerisation [4]	relief of Sla1-SH3 inhibition of Las17-Arp2/3-mediated actin nucleation [5]	direct binding to Las17 (Las17)
Las17: Las17 fragment; residues not stated for TIRF; in b194 Las17 300–422; in b52 full length Las17-GFP in cells	two-three fold	42.3 ± 7.0	sufficient to increase the elongation rate of actin filaments	about 15 seconds	about 4 s	about 22 s			
Sec4: small GTPase Sec4 (full length)							does indeed relieve inhibition of Las17-mediated actin polymerisation	alleviated Sla1-SH3 domain inhibition of Las17-Arp2/3-mediated actin nucleation	could bind directly to Las17

Source: article PMC12081870 (Communications Biology, 2025)
